The values that follow come from patent US12233036B2, “Inhibitors of autophagy and DCAR-1 as novel anthelmintic agents” (FLORIDA ATLANTIC UNIVERSITY BOARD OF TRUSTEES, priority 2019, dated 2025).

The test deals with wild type C. elegans. Nature of the test: Pheromone-induced dauer formation in wild type C. elegans in the presence of DHCA. It counts as in vivo. The note with it: wild type (N2) C. elegans treated by pheromone, pheromone alone around 20% dauer. As for the experimental part: FIG. 5 is a bar graph showing that dihydrocaffeic acid (DHCA) is the ligand for DCAR-1 GPCR. DHCA is the food signal that competes with the dauer-inducing pheromone to suppress dauer formation. (*P<0.01, t-test, N2 treated with 0 nM DHCA compared to N2 treated with 25 nM DHCA and N2 treated with 25 nM DHCA compared to N2 treated with 100 nM DHCA. ns, no statistical significant difference.) Recovery of dauer larvae requires the presence of food. G protein-coupled receptors (GPCRs) detect molecules such as food odors and activate internal signal transduction pathways. We identified a GPCR, DCAR-1, which is involved in detection of food signals in C. elegans. […] The recovery percentage of daf-2 and daf-7 mutant dauer larvae decreased by 25% when dcar-1 is mutated. Dihydrocaffeic acid (DHCA) is the ligand for DCAR-1. […] When wild type C. elegans was treated by pheromone, around 20% of animals entered dauer. However, in the presence of 25 nM DHCA, the percentage of dauer was decreased to 5%. […] Thus, DCAR-1 inhibitors act to block detection of foods signals by infective nematode parasites and to suppress the growth of parasites to adults.

Consider `O=C(O)CCc1ccc(O)c(O)c1` [DHCA, Dihydrocaffeic acid], for which the percentage of dauer by setting is: (25 nM DHCA) 5%; (100 nM DHCA) “none of animals formed dauer”.
